Measurements reported in patent US20090317444A1, “PROCESS FOR CELL PROLIFERATION” (BIOBERICA, S.A., priority 2006, published 2009).
“Also recorded” adds a separate entry of the source.

Columns and labels:
[1] = tested on: chondrocytes of bovine origin; test: Proliferation of chondrocytes measured through DNA levels (alginate beads); type: cell-based; conditions: 10 days culture in alginate beads; for increase in DNA levels relative to the control (without compound): 10 mM; for effect on DNA levels per alginate bead (in words): 1, 5 and 10 mM, FIG. 1
Method: Chondrocytes of bovine origin were isolated using digestion with collagenase following a previously described process (B. Beekman et al., Exp. Cell Res., 237, 135-141 (1997)).
The isolated bovine chondrocytes were cultured following a methodology described in the literature (J. DeGroot, et al., 266, 303-310 (2001)). The chondrocytes were transferred to an alginate support matrix, forming alginate beads which contain the cells at a concentration of 2.5×10^6 cells/ml, and DMEM (Dulbecco's Modified Eagle's Medium) with Glutamax was added to them supplemented with ascorbic acid, penicillin, streptomycin and FCS (foetal cow serum). After 24 hours, the medium was renewed and the chondrocytes contained in alginate beads (5 beads/well, with 250 μl of medium/well, in plates of 48 wells) were cultured in the absence (control) or presence of the compound to test (at concentrations of 1, 5 and 10 mM). The medium was regenerated twice a week. At the end of 10 days, the beads were collected (5 beads in each well, n=3 wells per condition) and they were stored at a temperature of −20° C. until making the analysis.
To quantify DNA levels, the beads were digested with papain and Hoechst 33258 (bisbenzimide) dye was used. DNA levels per alginate bead were determined.
(§1) The evaluation of the differences between all compounds and the control condition was assayed using analysis of variance (ANOVA). Then, the LSD test was performed to determine the difference between each compound and the control condition. They were considered statistically significant when p≦0.05.

[2] = tested on: chondrocytes of bovine origin; test: Release of glycosaminoglycans from the chondrocytes in alginate beads after stimulation with IL-1β; type: cell-based; conditions: IL-1β 20 ng/ml, 48 hours; for effect on release of GAGs by the chondrocytes (in words): 10 mM, FIG. 2
Method: Chondrocytes of bovine origin were cultured for 21 days in alginate beads as support matrix; approximately 100 beads in 75 cm^2 culture dishes in 25 ml of medium, without adding the compounds to be tested. The medium was regenerated twice a week. After 21 days of culture, the beads were transferred to 48-well plates, 5 beads per well, 250 μl of medium per well. The compounds to be tested were added on day 21 (mannosamine hydrochloride, glucosamine hydrochloride and N-acetylglucosamine) to evaluate the effect on the degradation of the extracellular matrix after stimulation with IL-1β (20 ng/ml). Each compound was tested at concentrations of 1 and 10 mM. In each experiment each concentration was tested at n=3 wells, except in the control (n=8 wells). Once the alginate beads have been incubated with IL-1β (20 ng/ml) and the compounds during 48 hours, the culture medium was collected (day 21 to day 23). The GAGs content in the beads and in the culture medium on day 23 was measured (release of GAGs mediated by aggrecanase). The GAGs content was determined, after digestion with papain, with the Blyscan™ assay (kit) from Biocolor Ltd.
The results were expressed as a percentage of released GAGs with respect to total GAGs.
as §1

[3] = tested on: metalloprotease activity (MMP) of the chondrocytes; test: Metalloprotease activity of the chondrocytes in alginate beads after stimulation with IL-1β and activation with APMA; type: cell-based, bovine; conditions: IL-1β 20 ng/ml, 1 mM APMA
Method: Bovine chondrocytes were used as starting point and the methodology of the Example 2 was followed, but in this case each compound was tested at two concentrations (5 and 10 mM).
The chondrocytes were cultured for 21 days in alginate to produce extracellular matrix. After 2 days of stimulation with IL-1β and with or without compounds, the medium was renewed. The metalloprotease activity was then determined in the culture medium after 2 hours of incubation with 20 ng/ml of IL-1β, 1 mM of APMA and with or without the compounds. The metalloprotease activity was quantified using the substrate for metalloproteases TNO 211-F (I. Tchetverikov et al., Clin. Exp. Rheumatol. 21, 711-8 (2003)).
as §1

bovine chondrocytes = test: Glycosaminoglycan content per chondrocyte (GAG with respect to DNA); type: cell-based; conditions: for effect on GAGs levels per chondrocyte (in words): 5 and 10 mM, FIG. 4
Method: Bovine chondrocytes were used as starting point and the same methodology was followed as in Example 1 (chondrocyte proliferation measured through DNA levels), but in this case each compound was tested at two concentrations (5 and 10 mM).
The GAG content was determined, after digestion with papain, with the Blyscan™ assay (kit) from Biocolor Ltd.
as §1

| SMILES | increase in DNA levels relative to the control (without compound) [1] [times] | effect on DNA levels per alginate bead (in words) ([1]; hydrochloride) | effect on release of GAGs by the chondrocytes (in words) [2] | reduction of the release of GAGs with respect to the control (culture without compound) ([2]; upper concentration (10 mM)) [%] | reduction in metalloprotease activity with respect to the control ([3]; 10 mM) [%] | effect on metalloprotease activity (in words) ([3]; 5 and 10 mM, FIG. 3) | effect on DNA levels per alginate bead (in words) [1] | increase of GAG content per chondrocyte with respect to the control (culture without product) (bovine chondrocytes; 10 mM) [%] | effect on GAGs levels per chondrocyte (in words) (bovine chondrocytes) |
| --- | --- | --- | --- | --- | --- | --- | --- | --- | --- |
| Cl.N[C@@H]1C(O)O[C@H](CO)[C@@H](O)[C@@H]1O (stereo partly shown) [mannosamine hydrochloride] | 10 | highest levels of DNA/bead; also recorded: dose-dependent increase in DNA levels | reduced the release of GAGs | 30 | 30 | the only one which reduced metalloprotease activity | – | – | – |
| Cl.N[C@H]1C(O)O[C@H](CO)[C@@H](O)[C@@H]1O (stereo partly shown) [glucosamine hydrochloride, reference compound] | 4 | – | reduced the release of GAGs | – | – | – | dose-dependent increase in DNA levels | – | – |
| CC(=O)N[C@@H]1C(O)O[C@H](CO)[C@@H](O)[C@@H]1O (stereo partly shown) [N-acetylmannosamine] | – | – | – | – | – | – | – | 63 | dose-dependent increase in GAGs levels per chondrocyte |
| CC(=O)N[C@H]1C(O)O[C@H](CO)[C@@H](O)[C@@H]1O (stereo partly shown) [N-acetylglucosamine, reference compound] | – | – | – | – | – | – | No significant effect | – | No significant effect |
